Data on 16 compounds can be found in ChEMBL document CHEMBL1133714, “1-(2-Nitrophenyl)thiosemicarbazides: a novel class of potent, orally active non-peptide antagonist for the bradykinin B(2) receptor” (J Med Chem, 2000).

For orientation: Ki means a measure of affinity in units of concentration, obtained from inhibition or displacement. High values mean lower affinity, low ones higher affinity.

This assay addresses T1, B2 bradykinin receptor (Rattus norvegicus, UniProt P25023).
T1 sequence (P25023 whole entry): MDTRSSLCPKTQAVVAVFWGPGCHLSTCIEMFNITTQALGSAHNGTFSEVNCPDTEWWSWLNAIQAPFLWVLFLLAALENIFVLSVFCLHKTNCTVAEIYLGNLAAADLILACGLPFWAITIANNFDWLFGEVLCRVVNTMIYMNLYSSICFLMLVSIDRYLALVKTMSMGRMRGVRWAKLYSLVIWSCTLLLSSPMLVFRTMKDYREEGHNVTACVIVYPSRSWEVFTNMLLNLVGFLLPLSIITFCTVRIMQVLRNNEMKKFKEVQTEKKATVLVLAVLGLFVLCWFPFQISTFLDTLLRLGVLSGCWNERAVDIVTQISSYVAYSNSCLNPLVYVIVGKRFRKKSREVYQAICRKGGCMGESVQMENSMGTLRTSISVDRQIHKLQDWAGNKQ
The experiment in a line: Inhibition of binding of [3H]BK to rat bradykinin B2 receptor expressed in NG108-15 neuroblastoma-glioma hybrid cell membranes. More on the design: species or system Membrane.
Compound `NC(=O)c1ccc(N/N=C(/S)NC(c2ccccc2)c2ccccc2)c([N+](=O)[O-])c1` registered an inhibitory constant (Ki) of 0.0018 µM. As for `CN(C)CCCN(CCCN(C)C)S(=O)(=O)c1ccc(NNC(=S)NC(c2ccccc2)c2ccccc2)c([N+](=O)[O-])c1`, the figure is 0.148 µM; as for `O=[N+]([O-])c1cc(S(=O)(=O)NCc2ccccc2)ccc1NC/C(S)=N\Cc1ccccc1`, above 100 µM; as for `CN(C)CCN(C)CCNC(=O)[C@H]1CCCN1S(=O)(=O)c1ccc(NNC(=S)NC(c2ccccc2)c2ccccc2)c([N+](=O)[O-])c1`, 0.0006 µM. As for `O=[N+]([O-])c1ccccc1N/N=C(/S)NC(c1ccccc1)c1ccccc1`, the figure is 0.038 µM. Consider `O=[N+]([O-])c1cccc(N/N=C(\S)NCc2ccccc2)c1`, for which the Ki was above 100 µM. For `CN(C)CCN(C)CCNC(=O)[C@@H]1CCCN1S(=O)(=O)c1ccc(NNC(=S)NC(c2ccccc2)c2ccccc2)c([N+](=O)[O-])c1`, the Ki turned out to be 0.0005 µM. `O=[N+]([O-])c1cc(S(=O)(=O)NCc2ccccc2)ccc1NNC(=S)NCc1ccccc1`: the Ki amounted to 0.31 µM. In the case of `NS(=O)(=O)c1ccc(N/N=C(/S)NC(c2ccccc2)c2ccccc2)c([N+](=O)[O-])c1`, the inhibitory constant (Ki) turned out to be 0.004 µM. The compound `O=[N+]([O-])c1ccccc1N/N=C(/S)NCc1ccccc1` had a Ki of 1.6 µM. The compound `O=C(O)c1ccccc1NNC(=S)NCc1ccccc1` displayed a Ki above 100 µM. With `S=C(NCc1ccccc1)NNc1ccccc1` the figure was 100 µM; with `O=[N+]([O-])c1cc(S(=O)(=O)NCc2ccco2)ccc1NNC(=S)NCc1ccco1`, 0.54 µM; with `O=C(NCc1ccccc1)NCc1ccccc1[N+](=O)[O-]`, above 100 µM. As to `O=[N+]([O-])c1ccccc1CNC(=S)NCc1ccccc1`, the Ki is 7.1 µM. With `O=[N+]([O-])c1cc(S(=O)(=O)NCc2ccccc2)ccc1N/N=C(\S)CCc1ccccc1` the figure was above 100 µM.
